Data published in patent US20090306454A1, “Devices and Methods for Stimulation of Tissue” (Stanford University, priority 2005, published 2009).

Columns and labels:
[1] = tested on: denervated orbicularis oculi; assay: Ach stimulation in the denervated rabbit model (Miochol-E injected into orbicularis oculi pocket); type: in vivo; set-up: key to eyelid response to Ach delivered: N = no response; C = complete eyelid closure
Text: a) Two white New Zealand female rabbits were anesthetized by using 3-5% isofluorane inhalation and ketamine/xylazine and monitored by Heska monitor (SP02, heart rate, and rectal temperature). b) A pre-auricular incision was made the facial nerve was surgically sectioned and a five millimeter section was eliminated.
To determine the response of denervated orbicularis oculi in rabbits to stimulation with varying dosages of Miochol-E (acetylcholine chloride, injectable, Novartis pharmaceuticals) the FDA approved Miochol-E in 10 mg/ml, or 0.055M Ach (molar mass of 182 g/mol) was used to test the effects in the denervated rabbit model.
Methods: The rabbit was sedated in standard fashion, an eyelid incision was made 5 mm from the lash line and the Miochol E was injected into the orbicularis oculi pocket. Retesting was done at six weeks.

[2] = tested on: right denervated orbicularis oculi; assay: Synergistic action of electric stimulation and Ach on denervated orbicularis oculi; type: in vivo, rabbit
Text: A possible synergistic interaction between Ach and electric stimulation were observed as follows. After having injected an amount of Ach into the right denervated orbicularis oculi that produced no reaction, electric stimulation was delivered to the muscle at an intensity previously unable to produce a definitive blink.
In a subsequent test session, the right denervated orbicularis was first tested using electrical stimulation alone (prior to any Ach testing) as shown in Table III.
After the delivery of 200 ul of Ach to the right denervated orbicularis oculi, the right orbicularis oculi was allowed to relax to baseline position prior to Ach stimulation. No saline flush was performed. Electric stimulation was given at 10 msec phase duration at 3 volts.

[3] = Chemical stability of Ach at body temperature (37 C, HPLC with UV detection); type: physicochemical
Text: To determine the stability of acetylcholine at 37 C to help guide the reservoir sizes and locations, aliquots of reference acetylcholine and standard strength Miochol-E (acetylcholine, injectable, Novartis Pharmaceuticals) were stored in sterile glass containers at 37 C.

[4] = Full Strength Ach (10 mg/ml), 200 μl, denervated rabbit orbicularis oculi

CC(=O)OCC[N+](C)(C)C.[Cl-] [Ach, acetylcholine chloride]
no reaction: eyelid reaction to injected Ach alone ([2]; an amount of Ach injected into the right denervated orbicularis oculi, before electric stimulation)
N: eyelid response to Ach delivered ([1]; Ach dilution 1:1, 0.5 μl, denervated rabbit orbicularis oculi) | eyelid response to Ach delivered ([1]; Ach dilution 1:1, 1 μl, denervated rabbit orbicularis oculi) | eyelid response to Ach delivered ([1]; Ach dilution 1:1, 5 μl, denervated rabbit orbicularis oculi) | eyelid response to Ach delivered ([1]; Ach dilution 1:1, 10 μl, denervated rabbit orbicularis oculi) | eyelid response to Ach delivered ([1]; Ach dilution 1:1, 25 μl, denervated rabbit orbicularis oculi) | eyelid response to Ach delivered ([1]; Ach dilution 1:1, 50 μl, denervated rabbit orbicularis oculi) | eyelid response to Ach delivered ([1]; Ach dilution 1:1, 100 μl, denervated rabbit orbicularis oculi) | eyelid response to Ach delivered ([1]; Ach dilution 1:2, 0.5 μl, denervated rabbit orbicularis oculi) | eyelid response to Ach delivered ([1]; Ach dilution 1:2, 1 μl, denervated rabbit orbicularis oculi) | eyelid response to Ach delivered ([1]; Ach dilution 1:2, 5 μl, denervated rabbit orbicularis oculi) | eyelid response to Ach delivered ([1]; Ach dilution 1:2, 10 μl, denervated rabbit orbicularis oculi) | eyelid response to Ach delivered ([1]; Ach dilution 1:2, 25 μl, denervated rabbit orbicularis oculi) | eyelid response to Ach delivered ([1]; Ach dilution 1:2, 50 μl, denervated rabbit orbicularis oculi) | eyelid response to Ach delivered ([1]; Ach dilution 1:2, 100 μl, denervated rabbit orbicularis oculi) | eyelid response to Ach delivered ([1]; Ach dilution 1:5, 0.5 μl, denervated rabbit orbicularis oculi) | eyelid response to Ach delivered ([1]; Ach dilution 1:5, 1 μl, denervated rabbit orbicularis oculi) | eyelid response to Ach delivered ([1]; Ach dilution 1:5, 5 μl, denervated rabbit orbicularis oculi) | eyelid response to Ach delivered ([1]; Ach dilution 1:5, 10 μl, denervated rabbit orbicularis oculi) | eyelid response to Ach delivered ([1]; Ach dilution 1:5, 25 μl, denervated rabbit orbicularis oculi) | eyelid response to Ach delivered ([1]; Ach dilution 1:5, 50 μl, denervated rabbit orbicularis oculi) | eyelid response to Ach delivered ([1]; Ach dilution 1:5, 100 μl, denervated rabbit orbicularis oculi) | eyelid response to Ach delivered ([1]; Ach dilution 1:10, 0.5 μl, denervated rabbit orbicularis oculi) | eyelid response to Ach delivered ([1]; Ach dilution 1:10, 1 μl, denervated rabbit orbicularis oculi) | eyelid response to Ach delivered ([1]; Ach dilution 1:10, 5 μl, denervated rabbit orbicularis oculi) | eyelid response to Ach delivered ([1]; Ach dilution 1:10, 10 μl, denervated rabbit orbicularis oculi) | eyelid response to Ach delivered ([1]; Ach dilution 1:10, 25 μl, denervated rabbit orbicularis oculi) | eyelid response to Ach delivered ([1]; Ach dilution 1:10, 50 μl, denervated rabbit orbicularis oculi) | eyelid response to Ach delivered ([1]; Ach dilution 1:10, 100 μl, denervated rabbit orbicularis oculi) | eyelid response to Ach delivered ([1]; Full Strength Ach (10 mg/ml), 0.5 μl, denervated rabbit orbicularis oculi) | eyelid response to Ach delivered ([1]; Full Strength Ach (10 mg/ml), 1 μl, denervated rabbit orbicularis oculi) | eyelid response to Ach delivered ([1]; Full Strength Ach (10 mg/ml), 5 μl, denervated rabbit orbicularis oculi) | eyelid response to Ach delivered ([1]; Full Strength Ach (10 mg/ml), 10 μl, denervated rabbit orbicularis oculi) | eyelid response to Ach delivered ([1]; Full Strength Ach (10 mg/ml), 25 μl, denervated rabbit orbicularis oculi) | eyelid response to Ach delivered ([1]; Full Strength Ach (10 mg/ml), 50 μl, denervated rabbit orbicularis oculi) | eyelid response to Ach delivered ([1]; Full Strength Ach (10 mg/ml), 100 μl, denervated rabbit orbicularis oculi)
C: eyelid response to Ach delivered [1, 4]
1 min: duration of complete eyelid closure [1, 4]
tonic, prolonged closure: muscle contraction / eyelid closure (conclusion from experiments) ([1]; Ach delivered to the orbicularis in a diffuse fashion, at certain concentrations and volumes)
stable: stability at body temperature ([3]; 14 days in sterile glass at 37 C)
Reproducible complete closure blinks: eyelid response to electric stimulation after Ach delivery ([2]; after 200 ul of Ach, muscle relaxed to baseline, no saline flush, electric stimulation 10 msec phase duration at 3 volts)
56494: Peak Area (Ach concentration by HPLC-UV) ([3]; after storage at 37 C for 14 days in sterile glass)
closed tightly for four minutes: eyelid response to electric stimulation after Ach injection ([2]; electric stimulation at an intensity previously unable to produce a definitive blink, after Ach amount that produced no reaction, over three stimulated partial blink motions)
